In series [1] the test system is MCF-7 cells. The experiment in a line: MTT proliferation assay (bulk cells). Type of series: cell-based, human. As to conditions: MCF-7, 5 day; read-out: IC50 bulk cell / whole cell population by MTT assay. Here is the method:
(§1) The growth inhibitory activity of RHPS4 in human bulk tumor cells have been compared, by MTT assay, against RHPS4 activity in tumor cells grown as colonies in the clonogenic assay, also termed the human tumor stem cell assay (HTCA) (FIG. 2A-B). HEK293T human embryonic kidney cells grown in the HTCA, and cord blood cells cultured in methylcellulose were also treated with RHPS4 (FIG. 2C). The MTT assay is a 5 day proliferation test measuring effects on a morphologically heterogeneous, differentiated cell population (bulk cells), whereas the HTCA and methylcellulose assays are longer term (10-15 day) tests in which only a very small fraction of a bulk culture (˜0.1-1%) will grow as colonies. Cells growing anchorage-independently as colonies in a semi-solid matrix are considered to be pluripotent stem cells (Hamburger & Salmon, 1977; Locke et al., 2005; Fiebig et al. 2004). […] Similar observations were made with the breast cancer cell line MCF-7 (shown in FIG. 2B, HTCA IC50=0.04 microM; bulk cell IC50=2 microM).

In series [2] the test system is PC3 cells. The experiment in a line: MTT proliferation assay (bulk cells). Type of series: cell-based, human. The settings on record: PC3, 5 day; read-out: IC50 growth inhibition of the bulk population by MTT assay. The protocol:
as §1

Series [3] has as its system UXF1138L cells. The experiment in a line: MTT proliferation assay (bulk cells). The format is cell-based, human. The settings on record: 5 day, read-out: IC50 growth inhibition of the bulk population by MTT assay. Here is the method: as §1
For series [4], the system named is HEK293T cells. The experiment in a line: MTT proliferation assay (monolayer). Type of series: cell-based, human. Here is the method:
To assess RHPS4 effects on normal stem cells, the human embryonic kidney cell line HEK293T was exposed to drug in the MTT and HTCA assays, and tested RHPS4 effects on colony forming units of the mononuclear cell fraction of human cord blood in methyl cellulose (FIG. 2C). The cord blood colony assay was performed with and without colony stimulating growth factors, only methylcellulose containing growth factors grew colonies. […] Additionally, in normal cell types as compared to tumor cells, low and pharmacodynamically relevant concentrations of RHPS4 (0.01 to 1 microM) did induce colony formation (FIG. 2C). To assure that the induction of colony growth by RHPS4 in normal stem cells is reproducible, cord blood from three different individuals and HEK293T cells from different passages were used. Data shown in FIG. 2C represent the mean and standard deviation from three independent experiments. […] However, the plating efficiency (actual number of colonies growing per total number of cells seeded) varied among the experiments and therefore the results are shown as % of control growth. E.g. HEK293T control colony growth ranged from a mean number of 54 to 463 colonies per well, but the least percentage (cut-off level) of growth induction by RHPS4 observed in either, the individual HEK293T or the cord blood experiments, was 150%. […]

For series [5], the system named is UXF1138L cells. The experiment in a line: metaphase spreads. The format is cell-based, human. As to conditions: 1 microM, 24 hrs. The protocol:
To prepare metaphase spreads, cells were grown to 70% confluency and treated with 1 μM RHPS4 or PBS (vehicle control) for 24 hours in a T75 tissue culture flask. Supernatants were then replaced with media containing 10 μg/ml Colcemid (Sigma) and incubated for 90-120 minutes at 37° C. Next, cells were trypsinized and centrifuged at 500×g for 5 minutes; 8 ml 60 mmol/l KCl was added to the pellets and the cell suspension incubated for 20 minutes at 37° C. In a pre-fixation step, 2 ml freshly made fixative (methanol/glacial […] 3:1) was added on top of the hypotonic suspension and mixed carefully by turning the tube. After 10 minutes at RT, the mix was centrifuged at 600×g for 10 min. and the supernatant removed. For fixation, 10 ml fixative were added and the mix is kept at RT for 10 min. and centrifuged as above, the step was repeated 2 more times. Then, 0.5 ml fresh fixative was added to obtain a milky suspension of cells without clumps. Cleaned slides were placed horizontally at a 45° angle and 100 μl of cell solution dropped onto the slide from a distance of about 20 cm. Slides were dried at RT or directly dehydrated through an ethanol series of 70%, 90% and 100%. After dehydration, slides were rinsed in PBS and incubated with 0.1 μg/ml DAPI (4′, 6-diamidino-2-phenylindole)/PBS for 30 minutes at RT. […]

A short description of series [6]: water solubility. Type of series: physicochemical. The text has this: RHPS4 was synthesized as described (Heald et al 2002). RHPS4 is water-soluble and was therefore dissolved in phosphate buffered saline (PBS). For in vitro studies paclitaxel (Taxol) was purchased from Sigma (St. Louis, Mo.) and dissolved in dimethylsulfoxide (DMSO); for in vivo experiments the clinical formulation was used and obtained Cremophor from Bristol-Myers Squibb, New York, N.Y.

The test system of series [7] is Saos-2, HEK293T, UXF 1138, H460. The experiment in a line: MTT assay in cell lines with short and long telomeres. The format is cell-based, human.

Entries after “also recorded” stand apart in the source; their conditions may differ.

In the case of `COS(=O)(=O)[O-].Cc1cc2c3c([n+](C)c4ccc(F)cc4c3c1)-c1cc(F)ccc1N2C` [RHPS4, 3,11-difluoro-6,8,13-trimethyl-8H-quino[4,3,2-kl]acridinium methosulfate], the IC50 in series [1] amounted to 2000 nM; in series [2], 1800 nM; in series [3], 400 nM. Also, the “bulk cell growth, % of control” value in series [4] (1 mircoM RHPS4, HEK293T monolayer) is 60%. In addition, the “induction of growth in MTT assay” value in series [4] (eight dose levels 0.001-50 mircoM) is “no induction of growth”. The “chromosome morphology in metaphase spreads” value in series [5] is “marked increase in end-to-end joining; also recorded: ring and dicentric chromosomes”. For the same compound, the solubility in water entry in series [6] was “water-soluble”. The “difference in inhibitory concentrations 50% between cell lines with short and long telomeres” value in series [7] is listed as “two log-fold”.

(Values after patent US20080279961A1, “TELOMERE TARGETING AGENTS AS STEM CELLS DIRECTED TREATMENTS” (priority 2007, published 2008).)
